Reference: patent US11351218B2, “Composition for preventing or treating glioblastoma comprising Platycodon grandiflorum A. De Candolle, Scutellaria baicalensis, Phellodendron amurense Ruprecht or Rubus coreanus” (University-Industry Cooperation Group of Kyung Hee …, priority 2019, dated 2022)

Columns and labels:
Type in all cases: cell-based, human
cell-surface LDLR = assay: Cell surface LDLR analysis by flow cytometry, normal astrocytes; settings: PD 10 μM or U18666a 1 μM, 24 hours
Protocol: FIGS. 16A to 16D show the results that PD increases the expression of LDLR on cell surfaces in GBM cells. […] GAPDH was used as a loading control. […] GAPDH was used as a loading control.
Cells treated as described in FIG. 16 were separated from plates and resuspended in PBS. After washing with 1% BSA in PBS, the cells were incubated with a primary antibody against human LDLR (Abcam) for 30 minutes. Then, the cells were washed before incubation with an Alexa-Fluor 488-conjugated secondary antibody (Invitrogen) for 30 minutes. The stained cells were washed and resuspended. Fluorescence was analyzed by a FACScalibur flow cytometer (Becton Dickinson, San Jose, Calif., USA) using CellQuest™ software.
Brain is the most cholesterol-rich organ of the body, containing about 20% of total body cholesterol. […] As can be confirmed in FIG. 16A, in consistent with these reports, the LDLR protein level was markedly elevated in U87MG and U373MG cells relative to normal human astrocytes. […] Then, the cell surface expression of LDLR was confirmed by flow cytometry.

U87MG and U373MG cells [1] = assay: DQ Red-BSA trafficking assay (lysosomal proteolytic activity) in GBM cells; settings: PD 10 μM or BafA1 (100 μM), 24 hours
Protocol: Cells were incubated with DMSO, PD (10 μM), or BafA1 (100 μM) for 24 hours, and then the cells were treated with DQ-BSA ([…]) for 30 minutes. Data shown are representative images of each sample. The fluorescence intensity of DQ-BSA was quantified with ImageJ software. More than 100 cells were counted in each condition and the number of puncta per cells is presented as means±SD from three independent experiments.
Cells were placed on coverslips prior to treatment with the materials and continuously loaded with DQ Red-BSA (Invitrogen) at a working concentration of 10 μg/mL in a culture medium at 37° C. for 30 minutes. The cells were fixed in 4% PFA and then subjected to DAPI staining. The images were examined under a Zeiss laser confocal microscope. The number of DQ Red-BSA spots was quantified using ImageJ software.
To confirm the lysosomal activity in PD-treated GBM cells, the DQ-BSA assay was performed to assess lysosomal protein degradation. In DQ-BSA, which is a red BODIPY dye conjugated to bovine serum albumin (BSA), the BSA is so heavily conjugated that the red fluorescence is self-quenched. Upon cleavage of the DQ-BSA by proteolytic enzymes in lysosomal compartments, this quenching is relieved, generating red fluorescence. Thus, DQ-BSA is a useful tool to visualize a lysosomal proteolytic activity.

SQSTM1 mRNA = assay: RT-PCR of SQSTM1 (p62) mRNA in GBM cells; settings: PD 5 μM and 10 μM, 24 hours, both GBM cells
Protocol: FIGS. 3A to 3C show the results that PD inhibits autophagic flux in GBM cells. […] The expression of LC3B and SQSTM1 was confirmed by immunoblot analysis. […] GAPDH was used as a loading control.
Total RNA was isolated using the Easy-Blue RNA extraction kit (iNtRON Biotech, Sungnam, Korea) according to the manufacturer's directions. 1 μg of the total RNA was reverse transcribed using a cDNA synthesis kit (TaKaRa, Otsu, Shinga, Japan) according to the manufacturer's instructions. The obtained cDNA was then amplified by PCR in a reaction mixture consisting of 10× Taq buffer, 2.5 mM dNTP mixture, Taq DNA polymerase (Takara), and corresponding primer sets. The primer sequences were as follows. Human SQSTM1-forward: 5′-GAACTCCAGTCCCTACAGATGCC-3′ (SEQ ID NO: 1), SQSTM1-reverse: 5′-CGGGAGATGTGGGTACAAGG 2-3′ (SEQ ID NO: 2); Human LDLR-forward: 5′-CAG ATA TCA TCA ACG AAG C-3′ (SEQ ID NO: 3), LDLR-reverse: 5′-CCTCTCACACCAGTTCACTCC-3′ (SEQ ID NO: 4); Human GAPDH-forward: 5′-CGTCTTCACCACCATGGAGA-3′ (SEQ ID NO: 5), GAPDH—reverse: 5′-CGGCCATCACGCCACAGTTT-3′ (SEQ ID NO: 6). The PCR products were analyzed by 1.5% agarose gels.

U87MG and U373MG cells [2] = assay: Cholesterol measurement (total cholesterol assay kit) in GBM cells; settings: PD 10 μM or U18666a 1 μM, 24 hours
Protocol: FIGS. 15A and 15B show the results that PD promotes accumulation of cholesterol in lysosomes. Cells were treated with DMSO, PD (10 μM), or U18666a (1 μM) for 24 hours. […] Total cholesterol levels are expressed in cholesterol (μg) per protein (mg) of cell lysate and are shown as means±SD from two independent experiments.
Cells treated as described above were processed using a total cholesterol assay kit (STA384, Cell Biolabs) according to the manufacterer's instructions. Cholesterol esters and free cholesterol were quantified by homogenizing 10^6 cells extracted from a 200 μL mixture of chloroform: isopropanol: NP-40 (7:11:0.1). After centrifugation of the extract at 15,000× g for 10 minutes, the organic phase was collected and evaporated at 50° C. The extract was resuspended in 200 μL of a 1× cholesterol assay diluent prior to analysis. The colorimetric signal was analyzed using an ELISA reader (Versa Max, Molecular Devices, Sunnyvale, Calif., USA) at 540 nm. Cellular cholesterol results were reported as μg of cholesterol per mg of cell protein.

`C[C@@H]1O[C@@H](O[C@H]2[C@H](OC(=O)[C@]34CCC(C)(C)C[C@H]3C3=CC[C@@H]5[C@@]6(C)C[C@H](O)[C@H](O[C@@H]7O[C@H](CO)[C@@H](O)[C@H](O)[C@H]7O)C(CO)(CO)[C@@H]6CC[C@@]5(C)[C@]3(C)C[C@H]4O)OC[C@H](O)[C@@H]2O)[C@H](O)[C@H](O)[C@H]1O[C@@H]1OC[C@@H](O)[C@H](O[C@@H]2OC[C@](O)(CO)[C@H]2O)[C@H]1O` [PD, platycodin D] was tested, and the “changes in peak shift (cell surface LDLR)” value (cell-surface LDLR) was “very negligible”, the “DQ-BSA red fluorescence vs DMSO” value (U87MG and U373MG cells [1]) was “significant reduction” and the “p62 mRNA levels” value (SQSTM1 mRNA) was “did not alter”. The free cholesterol levels (U87MG and U373MG cells [2]) was “significant increase”.
